Laboratory results from patent US7189701B1, “Tetrapeptide stimulating functional activity of neurons pharmacological agent based thereon and method of use thereof” (Sankt-Petersburgskaya Obschestvennaya Organizatsiya …, priority 1999, dated 2007).
Residues, ends and D or L forms follow the SMILES beside them.

What was measured:
cerebral cortex of rats = test: Intensity of lipid peroxide oxidation reactions and protein peroxidation in the cerebral cortex; format: in vivo; details: 1 μg intraperitoneally daily for 5 days
Description: The intensity of lipid peroxide oxidation (LPO) was assessed by the content of initial LPO products—diene conjugates and end products—Schiff bases. The degree of protein peroxidation was estimated by the content of carbonyl-derived amino acids in proteins after their interaction with 2,4-dinitrophenylhydrazine.
The study was conducted on 20 white unbred rats. 1 μg of the tetrapeptide was administered to the animals intraperitoneally daily for 5 days.
Moreover, the tetrapeptide application inhibited protein peroxidation as well as LPO (Table 1).

[1] = test system: patients with vascular dementia; test: Preliminary clinical trial in patients with vascular dementia; format: in vivo, human; details: 3 μg intramuscularly once daily for 30 days
Description: Twelve patients aged 69 to 76 years (7 males and 5 females) suffering from hypertensive disease and atherosclerosis of cerebral vessels for a long time were enrolled in the study. Three of them had apoplexy in their medical histories. Initial data obtained in the similar patients before the treatment was used as control. L-Ala-L-Glu-L-Asp-L-Pro tetrapeptide was intramuscularly injected in a single dose of 3 μg once daily for 30 days.
Results were assessed after the treatment in comparison with the data obtained before the treatment. Basing on the examination results, changes in the patients' state were defined according to the following gradation: improvement (substantial, average or minor), deterioration, no changes.
At the pretreatment examination signs of intellectual-mnemic defect were found in all the patients: memory impairment, intellectual deterioration, aphasia, apraxia and agraphia disorders. In 9 patients signs of disorientation in time and place were found. The patients' emotional state was labile, manifested with periodical alternation of apathy and euphoria, complacency and anger aptness.

[2] = test system: patients with remote complications of craniocerebral injury; test: Clinical trial in patients with remote complications of craniocerebral injury (proof test, EEG α-index, subjective indices); format: in vivo, human
Description: The trial was conducted on 35 patients with remote complications of craniocerebral injury. They were divided into 3 groups: a control one (10 patients—standard treatment), a group under study (15 patients—standard treatment+1 μg of L-Ala-L-Glu-L-Asp-L-Pro tetrapeptide intramuscularly, daily for 10 days) and a comparison group (10 patients—standard treatment+Cerebrolysin). Remoteness of the suffered craniocerebral injury in the patients constituted 1 to 10 years. Decompensation of the posttraumatic process occurred in all the patients and was manifested in liquorodynamic disorder, neurocirculatory dystonia, cerebrofocal and psychopathologic syndromes.
Effect of the treatment with L-Ala-L-Glu-L-Asp-L-Pro tetrapeptide on the patients' attention was assessed by the proof test before and after the treatment. Significant increase in the number of reviewed symbols and decreased number of mistakes was noted, which indicated enhanced attention and raised stability of attention promoted by the tetrapeptide action (Table 5).
To assess the influence of L-Ala-L-Glu-L-Asp-L-Pro tetrapeptide on the cerebral bioelectric activity, a visual EEG (electroencephalography) test was carried out with its distribution on types and calculation of α-index before and after the treatment. EEG test was selectively performed in the patients from different groups showing most notable signs of disorder.
Before the treatment patients pathologic (III, IV and V) types of EEG prevailed in all the groups. The III-rd EEG type was characterised by the presence of so-called “non-dominant” curve, alongside with a low amplitude rate (no higher than 30–35 μV), irregular or even absent α-activity. The IV-th EEG type was marked by an extremely emphasised rhythm regularity and blurred zonal differences. The V-th EEG type was represented with an irregular slow activity (amplitude exceeding 35 μV), sharp waves and paroxysmal discharges.

cerebral cortex explants = test: Development of cerebral cortex explants (area index); format: cell-based, chicken embryos
Description: The experiments were carried out on 73 cerebral cortex fragments of 10–11 day old chicken embryos. Culture medium for the explants comprised 35% Eagle's solution, 25% foetal calf serum, 35% Henks' solution, 5% chicken embryonic extract. The medium was also added glucose (0.6%), insulin (0.5 IU/ml), penicillin (100 IU/ml), glutamine (2 mM). The cerebral cortex fragments were placed in the said medium and cultivated in Petri dishes in a thermostat at 36.7° C. for 2 days. L-Ala-L-Glu-L-Asp-L-Pro (SEQ ID NO:1) tetrapeptide and Cerebrolysin in concentrations 0.5, 1, 2, 20, 50, 100, 200, 400, 800, 1000 ng/ml were added into the experimental medium. Area index (AI) served as a criterion of biological activity and reflected the ratio of the entire explant area including the growth zone to the initial area of the cortex fragment. Student's t-criterion was applied to assess the significance of differences between the compared mean AI values. AI values were expressed percent. The control AI value was taken for 100%.
The growth zone of the control cortex explants included short axons, neuroglia cells migrating to the periphery and fibroblast-like cells.
Following series of experiments were performed to study the direct effect of the drugs on the cerebral cortex fragments.
Cerebrolysin in various concentrations was added to the culture medium of the cerebral cortex explants of the chicken embryos. […]

[3] = test system: mice subject to ECS-induced amnestic impact; test: CRPA in mice subject to ECS-induced amnestic impact; format: in vivo; details: testing in 24 hours after the training
Description: Nootropic activity of L-Ala-L-Glu-L-Asp-L-Pro tetrapeptide was studied with the application of the conditioned reflex of passive avoidance (CRPA) in the intact animals and under the conditions of amnestic impacts (electroconvulsive treatment and ethanol intoxication).
The experiments were carried out on male mice weighing 20 to 24 g. For each animal the period of stay in dark and lighted chamber departments was registered during 2 min. before the training. […] The animals were trained by means of applying an electric pain stimulus in the preferred dark department, which lasted until the animal left this department. L-Ala-L-Glu-L-Asp-L-Pro tetrapeptide was introduced intraperitoneally 60 min. before the training. Testing was performed in 2 and 24 hours after the training. The period the animal stayed in the dark and lighted chamber departments and the number of animals not entering the dark department (“educated” animals) were recorded.
Electroconvulsive shock (ECS) was induced in the mice no later than in 10 sec. after the training via corneal electrodes by an electric impulse of 25 mA, which lasted for 0.5 sec. L-Ala-L-Glu-L-Asp-L-Pro tetrapeptide was introduced intraperitoneally 60 min. before the training. Testing was performed in 24 hours after the training.

[4] = after treatment, added to conventional treatment

C[C@H](N)C(=O)N[C@@H](CCC(=O)O)C(=O)N[C@@H](CC(=O)O)C(=O)N1CCC[C@H]1C(=O)O [L-Ala-L-Glu-L-Asp-L-Pro tetrapeptide, L-Alanyl-L-Glutamyl-L-Aspartyl-L-Proline] (H-AEDP-OH)
Degree of protein peroxidation (cerebral cortex of rats): 4.81 ± 0.09 μmole/mg of protein
Diene conjugates (cerebral cortex of rats): 29.67 ± 1.93 nmole/g of the tissue
Schiff bases (cerebral cortex of rats): 245.2 ± 23.9 IU/g of the tissue
patients showing reverse development of the pathologic symptoms [1]: 74.8%
Number of mistakes (proof test) [2, 4]: 6.3 ± 1.1
Reviewed symbols (proof test) [2, 4]: 2519.6 ± 105.3
α-index (EEG) [2, 4]: 47.9 ± 3.1
cases with improvement of subjective indices (memory, mental agility, headaches, emotional evenness, will activity, recovery after a night repose) ([2]; before vs after treatment, 1 μg intramuscularly daily for 10 days): 71%
increase in the explant area index (AI) in comparison with control (cerebral cortex explants; 20 ng/ml): 40±7%
concentration stimulating cultivated cortical fragments (cerebral cortex explants; effective concentration): 20 ng/mL
Total period of stay in the dark chamber in 24 hours [3]: 38.1 ± 4.4
Trained animals (%) ([3]; i.p. 60 min. before the training): 25%
